The values that follow come from article PMC8838850, “Synthesis, Antimicrobial, Anti-Virulence and Anticancer Evaluation of New 5(4H)-Oxazolone-Based Sulfonamides” (Molecules, 2022).

Data set [1] deals with Escherichia coli ATCC 10536. Kind of data set: MIC by agar dilution. The settings on record: 20 h; for MIC: ATCC10536, 37 °C, read-out: Minimum inhibitory concentration (MIC). Format: cell-based. On the procedure:
(§1) The MICs of the synthesized compound were determined by agar dilution method according to the Clinical Laboratory and Standards Institute Guidelines (CLSI, 2015). Briefly, the tested strains were incubated overnight in tryptic soy broth (TSB) (Oxoid, United Kingdom) and then diluted in Muller–Hinton (MH) broth (Oxoid, United Kingdom) to turbidity approximating to the equivalent of 0.5 McFarland standard. The suspensions were further diluted with sterile saline (1:10) and standardized inoculums (approximately 10^4 CFU per spot) were spotted on the surfaces of MH agar (Oxoid, United Kingdom) plates containing different concentrations of tested compounds and a control plate. The MICs were the lowest concentrations that inhibit growth on the plates after incubation at 37 °C for 20 h.
(Agar dilution tests growth on a series of plates holding different concentrations.)

Data set [2] concerns Klebsiella pneumoniae ATCC 27736. Kind of data set: MIC by agar dilution. Format: cell-based. The following applies: 20 h; for MIC: ATCC27736, 37 °C, read-out: Minimum inhibitory concentration (MIC). On the procedure: as §1
Data set [3] relates to Micrococcus spp. ATCC 10240. Kind of data set: MIC by agar dilution. Format: cell-based. The following applies: 20 h; for MIC: ATCC10240, 37 °C, read-out: Minimum inhibitory concentration (MIC). On the procedure: as §1
Data set [4] relates to Salmonella typhimurium ATCC 14028. Description: MIC by agar dilution. Format: cell-based. The following applies: 37 °C, 20 h; for MIC: Salmonella enterica, read-out: Minimum inhibitory concentration (MIC). On the procedure:
as §1

The subject of data set [5] is Staphylococcus aureus ATCC 6538. Kind of data set: MIC by agar dilution. The settings on record: 20 h; for MIC: ATCC6538, 37 °C, read-out: Minimum inhibitory concentration (MIC). Format: cell-based. On the procedure:
as §1

Data set [6] concerns Staphylococcus epidermidis ATCC 12228. Kind of data set: MIC by agar dilution. Format: cell-based. The settings on record: 20 h; for MIC: ATCC12228, 37 °C, read-out: Minimum inhibitory concentration (MIC). On the procedure: as §1
The test system of data set [7] is Pseudomonas aeruginosae ATCC 47085. Description: MIC by agar dilution. The settings on record: 20 h; for MIC: ATCC47085, 37 °C, read-out: Minimum inhibitory concentration (MIC). Format: cell-based, Pseudomonas aeruginosa. On the procedure: as §1
Data set [8] has as its system Aspergillus niger ATCC 16404. Description: MIC by agar dilution (antifungal). Format: cell-based. On the procedure:
as §1

The subject of data set [9] is Candida albicans ATCC 10231. Kind of data set: MIC by agar dilution (antifungal). Format: cell-based. On the procedure:
as §1

The test system of the next data set is BxPC-3. Kind of data set: SRB cellular proliferation assay. The following applies: BxPC-3 cells, mean ± SD (n = 3). Format: cell-based, human. On the procedure: (§2) The pancreatic human cancer cell lines BxPC-3 and Panc-1, the human hepatocellular carcinoma (HepG-2), and the normal immortalized pancreatic cell line HPDE, that were used in this study, were obtained from the American Type Culture Collection (Rockville, USA). Cell lines were cultured and treated with the tested compounds or dimethyl sulfoxide (DMSO) as previously described. Cells were cultivated in DMEM medium (Invitrogen, Carlsbad, CA, USA), supplemented with streptomycin, penicillin and fetal bovine serum (FCS) (Invitrogen, Carlsbad, CA, USA). The sulforhodamine B (SRB) assay was employed to assess the anti-proliferative effects of tested compounds on cancer cells. Cell lines were incubated and regularly treated with DMSO or increasing doses of tested compounds for 48 h. The cells were fixed with 10% trichloroacetic acid and stained with SRB fluorescent dye for 30 min. Then, the bounded SRB dye to cellular proteins was dissolved in 10 mM Tris base after washing excess dye with 1% acetic acid. The absorbance was measured at 510 nm in a reader (Biotek, Winooski, VT, USA).

Another data set has as its system HepG-2. Kind of data set: SRB cellular proliferation assay. The following applies: mean ± SD (n = 3). Format: cell-based, human. On the procedure: as §2
In the next data set the test system is Panc-1. Description: SRB cellular proliferation assay. Format: cell-based, human. The settings on record: Panc-1 cells, mean ± SD (n = 3). On the procedure: as §2
The next data set deals with HPDE. Description: SRB cell viability assay, normal cells. Format: cell-based. On the procedure: Firstly, to determine the cell viability, HPDE cell lines were treated with all new synthesized compounds 9a–k for 96 h using sulforhodamine B (SRB) assay. All newly synthesized compounds were proven non-toxic with IC50 more than […] (Table 2).
The pancreatic human cancer cell lines BxPC-3 and Panc-1, the human hepatocellular carcinoma (HepG-2), and the normal immortalized pancreatic cell line HPDE, that were used in this study, were obtained from the American Type Culture Collection (Rockville, USA). Cell lines were cultured and treated with the tested compounds or dimethyl sulfoxide (DMSO) as previously described. Cells were cultivated in DMEM medium (Invitrogen, Carlsbad, CA, USA), supplemented with streptomycin, penicillin and fetal bovine serum (FCS) (Invitrogen, Carlsbad, CA, USA).
The sulforhodamine B (SRB) assay was employed to assess the anti-proliferative effects of tested compounds on cancer cells. Cell lines were incubated and regularly treated with DMSO or increasing doses of tested compounds for 48 h. The cells were fixed with 10% trichloroacetic acid and stained with SRB fluorescent dye for 30 min. Then, the bounded SRB dye to cellular proteins was dissolved in 10 mM Tris base after washing excess dye with 1% acetic acid. The absorbance was measured at 510 nm in a reader (Biotek, Winooski, VT, USA).

In the next data set the test system is S. aureus ATCC 6538. Kind of data set: Biofilm formation assay (crystal violet, light microscopy). Format: cell-based, Staphylococcus aureus. The following applies: sub-MIC, light microscopy image. On the procedure:
(§3) Bacterial virulence is regulated via a quorum sensing (QS) system in an inducer/receptor manner. Diminishing bacterial virulence is an advantageous strategy to decrease the development of bacterial resistance. In this direction, anti-virulence and anti-QS activities have been explored in several studies as reviewed. The ability of P. aeruginosa or S. aureus to form biofilms was assayed in the absence or presence of tested compounds at sub-MIC. […] The experiment was conducted in triplicate and a one-way ANOVA test was employed to test the statistical significance using Graphpad Prism 8 software. The results were significant statistically where p values < 0.05. Moreover, microscopic visualization of biofilm under the effect of tested compounds was also performed by light microscopy. Representative images for the inhibitory effects on S. aureus and P. aeruginosa biofilm formation are shown (Figure 3C,D). The microscopic images show a marked reduction in both the thickness of and surface area covered by the biofilms in presence of the tested compound.
(§4) In order to evaluate the ability of the tested compounds to inhibit the biofilm formation, a strong biofilm forming P. aeruginosa ATCC 47,085 [47, 66] and S. aureus ATCC 6538 [67] strains were used. As described earlier, suspensions of tested strains were prepared from overnight cultures in TSB and their optical densities were adjusted to OD600 of 0.4 (1×10^8 CFU/mL). Aliquots of 10 μL of the suspensions were added to 1 mL amounts of fresh TSB with or without sub-MICs of tested compounds. […] The non-adherent cells were removed, the wells were washed with sterile PBS, and left to dry. The attached biofilm forming cells were fixed with methanol for 25 min and stained with 1% crystal violet for 30 min. The excess dye was washed out and the crystal violet staining adhered biofilm forming cells were eluted by glacial acetic acid (33%). The experiment was conducted in triplicate and the absorbance was measured at 590 nm. The absorbances of tested strains treated with different compounds were expressed as mean ± standard error of percentage change from untreated tested strains control. The percentages of biofilm inhibition were calculated employing the following formula: (absorbance of control—absorbance in presence of tested compounds)/absorbance of control.

In data set [10] the test system is P. aeruginosa ATCC 47,085. Described as above. The following applies: sub-MIC, light microscopy image. Format: cell-based, Pseudomonas aeruginosa. On the procedure:
as §3, §4

Where [11] appears, read: ATCC16404, read-out: Minimum inhibitory concentration (MIC).
Where [12] appears, read: Homo sapiens, HepG2, HepG-2 cells, read-out: IC50.

≈ marks a conversion by molar mass, not a printed value. Where “and” joins values, the source holds several entries; their conditions need not be identical. Identical values can stand only once. Like-named read-outs stand apart in the source and are kept apart here.

By IC50 is commonly meant the point on the concentration scale where inhibition reaches its midpoint. Regarding “(E)-4-Methyl-N-(2-(4-(naphthalen-1-ylmethylene)-5-oxo-4,5-dihydrooxazol-2-yl)phenyl)benzenesulfonamide [Compound 9h]”, the “Minimum inhibitory concentration (MIC)” value in data set [1] (37 °C), in data set [2] (37 °C), in [3] (37 °C), in [4], in data set [5] (37 °C) and in data set [6] (37 °C) was >32 µg/mL each time. The “Minimum inhibitory concentration (MIC)” value is >32 µg/mL in data set [7] (37 °C); 8 µg/mL and 4 µg/mL in data set [8]; 4 µg/mL and 2 µg/mL in data set [9] (Candida albicans ATCC 10231). The IC50 with BxPC-3 was 12.60 ± 0.62 µg/mL; in the data set with HepG-2 (HepG-2 cells), 17.34 ± 0.96 µg/mL; in the data set with Panc-1, 14.72 ± 2.87 µg/mL; with HPDE (HPDE normal immortalized cell line, 96 h) it was >50000 µg/mL.

A word on the melting point: it is the temperature of the solid-liquid transition. `Cc1ccc(S(=O)(=O)Nc2ccccc2C2=N/C(=C/c3ccc(Cl)cc3)C(=O)O2)cc1` [Compound 9e, (E)-N-(2-(4-(4-Chlorobenzylidene)-5-oxo-4,5-dihydrooxazol-2-yl)phenyl)-4-methylbenzenesulfonamide] showed a melting point of 234 to 236 °C. In [1], the MIC amounted to 4 µg/mL (≈ 8.83 µM). Moreover, the MIC in data set [2] was found to be 2 µg/mL (≈ 4.42 µM). The MIC in [3] came out at 2 µg/mL (≈ 4.42 µM). For the same compound, in [4], the MIC was determined as 4 µg/mL (≈ 8.83 µM). The MIC in data set [5] turned out to be 2 µg/mL (≈ 4.42 µM). For the same compound, in data set [6], the MIC amounted to 2 µg/mL (≈ 4.42 µM). In data set [7], the MIC turned out to be 8 µg/mL (≈ 17.7 µM). Also, the MIC in [8] (setting [11]) was determined as 16 µg/mL (≈ 35.3 µM). Moreover, in data set [9] (Candida albicans, ATCC10231, Candida albicans ATCC 10231, read-out: Minimum inhibitory concentration (MIC)), the MIC stood at 8 µg/mL (≈ 17.7 µM). In the data set on BxPC-3 (Homo sapiens, read-out: IC50), the IC50 turned out to be 13.3 ± 1.57 µg/mL (≈ 29.3 µM). Besides, in the data set with HepG-2 (setting [12]), the IC50 was 15 ± 2.89 µg/mL (≈ 33.2 µM). For the same compound, the IC50 with Panc-1 (Homo sapiens, read-out: IC50) turned out to be 12.2 ± 1.29 µg/mL (≈ 26.8 µM). Moreover, the “Biofilm formation, microscopic visualization” value in the data set with S. aureus ATCC 6538 was “markedly reduced”. Further, the “Biofilm formation, microscopic visualization” value in data set [10] was “markedly reduced”.

`Cc1ccc(S(=O)(=O)Nc2ccccc2C2=N/C(=C/c3ccncc3)C(=O)O2)cc1` [Compound 9k, (E)-4-Methyl-N-(2-(5-oxo-4-(pyridin-4-ylmethylene)-4,5-dihydrooxazol-2-yl)phenyl)benzenesulfonamide] came in with a melting point of 210 to 212 °C. The MIC in data set [1] stood at 16 µg/mL (≈ 38.1 µM). Besides, the MIC in [2] is > 32 µg/mL. In addition, the MIC in data set [3] was determined as 2 µg/mL (≈ 4.77 µM). Moreover, the MIC in data set [4] was > 32 µg/mL. Moreover, in data set [5], the MIC is 4 µg/mL (≈ 9.54 µM). In addition, in data set [6], the MIC stood at 4 µg/mL (≈ 9.54 µM). In addition, the MIC in [7] was > 32 µg/mL. For the same compound, the MIC in [8] (ATCC16404, 20 h, read-out: Minimum inhibitory concentration (MIC)) was 16 µg/mL (≈ 38.1 µM). Also, the MIC in data set [8] (setting [11]) was > 32 µg/mL. Further, the IC50 with BxPC-3 (Homo sapiens, read-out: IC50) stood at 7.27 ± 1.49 µg/mL (≈ 17.3 µM). Further, in the data set on HepG-2 (setting [12]), the IC50 stood at 33.1 ± 5.12 µg/mL (≈ 78.9 µM). In addition, in the data set with Panc-1 (Homo sapiens, read-out: IC50), the IC50 was 19.9 ± 3.35 µg/mL (≈ 47.4 µM). The IC50 in the data set with HPDE (normal HPDE cells, read-out: IC50) is > 50 µg/mL.
